T/C data for 26 molecules are collected here from PubChem BioAssay AID330 (DTP/NCI, 2004).

Several values for one entry are separate records, joined by “and”; a condition that tells them apart may be missing. Equal values may be shown once. Toxic doses and inconclusive results are not listed.

The assay deals with P388 leukemia ip, CD2F1 mice, survival T/C. In words: NCI In Vivo Anticancer Drug Screen. Data for tumor model P388 Leukemia (intraperitoneal) in CD2F1 (CDF1) mice. As to conditions: endpoint: median survival time, higher = longer survival. Summed up: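 Mice carrying the transplanted tumor received test compound or vehicle. Survival was recorded in each group, and the value is the treated-group measurement divided by that of the vehicle-treated control group.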

Setting [1] is: dose: 100.0 mg/kg/injection, schedule: Q01DX001 (ip), vehicle: Klucel (hydroxypropylcellulose) (HPC).
The mark [2] stands for this setting: dose: 200.0 mg/kg/injection, schedule: Q01DX001 (ip), vehicle: Klucel (hydroxypropylcellulose) (HPC).
The mark [3] stands for this setting: dose: 400.0 mg/kg/injection, schedule: Q01DX001 (ip), vehicle: Klucel (hydroxypropylcellulose) (HPC).
[4] abbreviates: dose: 50.0 mg/kg/injection, schedule: Q01DX009 (ip), vehicle: saline with Tween-80.
The mark [5] stands for this setting: dose: 100.0 mg/kg/injection, schedule: Q01DX009 (ip), vehicle: saline with Tween-80.
The mark [6] stands for this setting: dose: 15.0 mg/kg/injection, schedule: Q01DX005 (ip), vehicle: saline with Tween-80.
Setting [7] is: dose: 60.0 mg/kg/injection, schedule: Q01DX005 (ip), vehicle: saline with Tween-80.
The mark [8] stands for this setting: dose: 200.0 mg/kg/injection, schedule: Q01DX009 (ip), vehicle: saline with Tween-80.
Setting [9] is: dose: 50.0 mg/kg/injection, schedule: Q01DX005 (ip), vehicle: saline with Tween-80.
[10] abbreviates: dose: 100.0 mg/kg/injection, schedule: Q01DX005 (ip), vehicle: saline with Tween-80.
The mark [11] stands for this setting: dose: 200.0 mg/kg/injection, schedule: Q01DX005 (ip), vehicle: saline with Tween-80.
[12] abbreviates: dose: 120.0 mg/kg/injection, schedule: Q01DX005 (ip), vehicle: saline with Tween-80.
Setting [13] is: dose: 240.0 mg/kg/injection, schedule: Q01DX005 (ip), vehicle: saline with Tween-80.

On to `CCOC(=O)C12C=CC(=O)NC1(OC)OC(C)C2` (stereo not drawn), for which the T/C was 90 % of control under setting [1], 94 % of control under setting [2] and 93 % of control under setting [3].
Turning to `Cc1ccc(NCn2c(=S)sc3ccccc32)cc1`, the T/C (dose: 50.0 mg/kg/injection, schedule: Q01DX005 (ip), vehicle: Klucel (hydroxypropylcellulose) (HPC)) was 89 % of control; the T/C (dose: 100.0 mg/kg/injection, schedule: Q01DX005 (ip), vehicle: Klucel (hydroxypropylcellulose) (HPC)) was 88 % of control; the T/C (dose: 200.0 mg/kg/injection, schedule: Q01DX005 (ip), vehicle: Klucel (hydroxypropylcellulose) (HPC)) is 98 % of control.
As to `O=C(C(=O)C(F)(F)C(F)(F)C(F)(F)F)c1ccccc1`, the T/C (dose: 50.0 mg/kg/injection, schedule: Q01DX005 (ip), vehicle: saline + Tween-80 + alcohol) is 102 % of control and the T/C (dose: 100.0 mg/kg/injection, schedule: Q01DX005 (ip), vehicle: saline + Tween-80 + alcohol) was 97 % of control.
Consider `CCS(CC)=NC(=O)C(Cl)Cl`, for which the T/C runs as follows: (dose: 50.0 mg/kg/injection, schedule: Q01DX001 (ip), vehicle: Klucel (hydroxypropylcellulose) (HPC)) 100 % of control and 104 % of control and 97 % of control; under setting [1], 99 % of control and 100 % of control and 94 % of control; under setting [2], 99 % of control and 100 % of control and 123 % of control; under setting [3], 111 % of control and 95 % of control.
With `COc1ccc2nc3cc(Cl)ccc3c(NCCOCCO)c2c1`, the T/C runs as follows: under setting [4], 101 % of control; under setting [5], 109 % of control.
Consider `COC(=O)C1=NC(=O)C(C#N)=C(C(=O)OC)C1(C(=O)c1ccc(OC)cc1)c1ccc(OC)cc1` (stereo not drawn), for which the T/C was 95 % of control (dose: 60.0 mg/kg/injection, schedule: Q01DX005 (ip), vehicle: Klucel (hydroxypropylcellulose) (HPC)) and 91 % of control (dose: 120.0 mg/kg/injection, schedule: Q01DX005 (ip), vehicle: Klucel (hydroxypropylcellulose) (HPC)).
Regarding `CCOC(=O)c1ccc(NC(=O)Oc2cc(C)ccc2C)cc1`, the T/C is 93 % of control (dose: 3.75 mg/kg/injection, schedule: Q01DX005 (ip), vehicle: saline with Tween-80); 90 % of control (dose: 7.5 mg/kg/injection, schedule: Q01DX005 (ip), vehicle: saline with Tween-80); 90 % of control and 94 % of control under setting [6]; 94 % of control under setting [7].
Turning to `N#Cc1ccc(CC(CC(=O)c2ccccc2)c2ccccc2)cc1` (stereo not drawn), the T/C reads like this: (dose: 25.0 mg/kg/injection, schedule: Q01DX009 (ip), vehicle: saline with Tween-80) 91 % of control; under setting [4], 89 % of control; under setting [5], 89 % of control; under setting [8], 89 % of control.
For `C[C@]12CC[C@H](O)CC1=CC[C@@H]1[C@@H]2CC[C@]2(C)C(=O)CC[C@@H]12`, the T/C reads like this: (dose: 25.0 mg/kg/injection, schedule: Q01DX005 (ip), vehicle: saline with Tween-80) 94 % of control; under setting [9], 90 % of control; under setting [10], 91 % of control; under setting [11], 90 % of control.
For the molecule `c1ccc(-c2nnc(-c3ccccc3)c3c2nn2ccc4ccccc4c32)cc1`, the T/C is, setting by setting: (dose: 100.0 mg/kg/injection, schedule: Q01DX001 (ip), vehicle: saline with Tween-80) 90 % of control; (dose: 200.0 mg/kg/injection, schedule: Q01DX001 (ip), vehicle: saline with Tween-80) 89 % of control; (dose: 400.0 mg/kg/injection, schedule: Q01DX001 (ip), vehicle: saline with Tween-80) 103 % of control.
`O=C(O)C1CC(Cl)C(O)C(Cl)C1` (stereo not drawn): the T/C by setting is: under setting [9], 100 % of control; under setting [10], 97 % of control; under setting [11], 100 % of control.
For the molecule `CC(C)(C)C(=O)NC(OC(NC(=O)C(C)(C)C)C(=O)C(C)(C)C)C(=O)C(C)(C)C` (stereo not drawn), the T/C under setting [7] is 97 % of control, the T/C under setting [12] was 99 % of control and the T/C under setting [13] is 105 % of control.
`CN(C(=S=O)c1ccc([N+](=O)[O-])cc1)c1ccccc1`: the T/C is, setting by setting: (dose: 50.0 mg/kg/injection, schedule: Q01DX009 (ip), vehicle: saline) 100 % of control; (dose: 100.0 mg/kg/injection, schedule: Q01DX009 (ip), vehicle: saline) 97 % of control; (dose: 200.0 mg/kg/injection, schedule: Q01DX009 (ip), vehicle: saline) 104 % of control.
Consider `CC(C)N(B1NCC(C)N1C(C)C)C(C)C` (stereo not drawn), for which the T/C runs as follows: (dose: 100.0 mg/kg/injection, schedule: Q01DX001 (ip), vehicle: saline) 101 % of control; (dose: 200.0 mg/kg/injection, schedule: Q01DX001 (ip), vehicle: saline) 102 % of control; (dose: 400.0 mg/kg/injection, schedule: Q01DX001 (ip), vehicle: saline) 100 % of control.
As for `O=C1C(Cl)=C(N2CC2)C(=O)C(Cl)=C1N1CC1`, the T/C runs as follows: (dose: 0.08 mg/kg/injection, schedule: Q01DX009 (ip), vehicle: saline with Tween-80) 105 % of control; (dose: 0.16 mg/kg/injection, schedule: Q01DX009 (ip), vehicle: saline with Tween-80) 112 % of control; (dose: 0.31 mg/kg/injection, schedule: Q01DX009 (ip), vehicle: saline with Tween-80) 122 % of control; (dose: 0.63 mg/kg/injection, schedule: Q01DX009 (ip), vehicle: saline with Tween-80) 124 % of control; (dose: 2.5 mg/kg/injection, schedule: Q01DX009 (ip), vehicle: saline with Tween-80) 155 % of control; (dose: 5.0 mg/kg/injection, schedule: Q01DX009 (ip), vehicle: saline with Tween-80) 155 % of control. Besides, where the note is “dose: 10.0 mg/kg/injection, schedule: Q01DX009 (ip), vehicle: saline with Tween-80”, the T/C was 155 % of control.
As to `OC1(c2ccc(Cl)cc2)c2ccccc2COc2ccccc21` (stereo not drawn), the T/C was 102 % of control under setting [1], 100 % of control under setting [2] and 100 % of control under setting [3].
In the case of `CCNC(=O)OCc1c(COC(=O)NCC)c(-c2ccc(F)cc2)n2c1CCC2`, the T/C (dose: 3.13 mg/kg/injection, schedule: Q01DX009 (ip), vehicle: distilled water + Tween-80) was 123 % of control.
Take `COc1ccc(C2CC(=O)N(c3ncccc3C)C(=O)C2)cc1`: the T/C was 93 % of control (dose: 100.0 mg/kg/injection, schedule: Q04DX003 (ip), vehicle: saline); 100 % of control (dose: 200.0 mg/kg/injection, schedule: Q04DX003 (ip), vehicle: saline); 102 % of control (dose: 400.0 mg/kg/injection, schedule: Q04DX003 (ip), vehicle: saline).
Consider `CN1CCCN2CCCN(C)P12`, for which the T/C was 99 % of control (dose: 6.25 mg/kg/injection, schedule: Q01DX005 (ip), vehicle: saline); 98 % of control (dose: 12.5 mg/kg/injection, schedule: Q01DX005 (ip), vehicle: saline); 105 % of control (dose: 25.0 mg/kg/injection, schedule: Q01DX005 (ip), vehicle: saline).
`CC1CCP(=O)(c2ccccc2)C1` (stereo not drawn): the T/C (dose: 50.0 mg/kg/injection, schedule: Q01DX005 (ip), vehicle: saline) was 104 % of control; the T/C (dose: 100.0 mg/kg/injection, schedule: Q01DX005 (ip), vehicle: saline) was 105 % of control; the T/C (dose: 200.0 mg/kg/injection, schedule: Q01DX005 (ip), vehicle: saline) was 105 % of control.
Consider `ON(CCc1ccncc1)CCc1ccncc1`, for which the T/C was 100 % of control under setting [9], 98 % of control under setting [10] and 100 % of control under setting [11].
On to `COc1ccc(CCN2CN=C(Sc3ccc([N+](=O)[O-])cc3Cl)NC2)cc1OC`, for which the T/C runs as follows: under setting [4], 98 % of control; under setting [5], 98 % of control; under setting [8], 93 % of control.
On to `CCCn1c(C)nc2cc(C(F)(F)F)cc([N+](=O)[O-])c21`, for which the T/C is, setting by setting: under setting [6], 94 % of control; (dose: 30.0 mg/kg/injection, schedule: Q01DX005 (ip), vehicle: saline with Tween-80) 99 % of control; under setting [7], 101 % of control and 97 % of control; under setting [12], 98 % of control; under setting [13], 103 % of control.
`CC1(C)OC(=O)C(=Cc2ccc(C#N)cc2)C(=O)O1`: the T/C runs as follows: under setting [7], 108 % of control; under setting [12], 102 % of control; under setting [13], 111 % of control.
Consider `Cc1ccc(Sc2ccc3ccccc3n2)cc1`, for which the T/C was 90 % of control under setting [9], 101 % of control under setting [10] and 104 % of control under setting [11].
As for `Cc1c(Cc2ccccc2)c(N2CCOCC2)n2c(nc3ccccc32)c1C#N`, the T/C is 91 % of control under setting [7], 88 % of control under setting [12] and 91 % of control under setting [13].
